Patent US20190315711A1 (eXIthera Pharmaceuticals, Inc., priority 2016, published 2019)

What was measured:
Thrombin = target: T1, Thrombin (Homo sapiens, UniProt P00734); assay: Dose response assay for protease inhibitors: thrombin; type: biochemical; conditions: ratio versus Factor XIa
T1 construct: Thrombin; 0.2 μM in 50% glycerol (7.34 μg/mL)

[1] = Determination of bioavailability in a dog; type: in vivo; conditions: plasma, male beagle dogs, IV 1 mg/kg vs oral gavage 5 mg/kg
Experimental: The following protocol was used to estimate the bioavailability of test compounds in a dog. Test compounds were formulated in vehicles compatible with intravenous and oral dosing. Test compounds were administered to male beagle dogs via an intravenous bolus at 1 mg/kg (1 mg/mL at a dose volume of 1 mL/kg) or via oral gavage at 5 mg/kg (1 mg/mL at a dose volume of 5 mL/kg). Blood samples were collected via the contralateral (to intravenous bolus) jugular vein or via other accessible vein, at various timepoints following administration out to 24 hours post dose. Plasma samples (EDTA) were obtained by centrifugation (2200×g for 10 minutes at 5° C.) and stored frozen ([…]) until analyzed for parent compound via LC/MS/MS. Pharmacokinetic parameters were estimated from the plasma concentration time data by standard non-compartmental methods utilizing standard analysis software. By comparing the area under the curve (AUC) for IV and PO administration estimates of oral bioavailability were determined.

Row | Structure (SMILES) | Ratio: Thrombin/FXIa (Thrombin) | bioavailability [1] [%]
1 | CC[C@@H](NC(=O)N1C(=O)[C@H](Cc2ccnc(N)c2)[C@H]1C(=O)N(C)c1ccncc1)c1cccc(C)c1 [Compound 87] | H (“H” indicates 101-1000) | > 30
2 | CC[C@@H](NC(=O)N1C(=O)[C@H](Cc2cc(C)nc(N)c2)[C@H]1C(=O)N(C)c1ccccc1)C1CCCCC1 [Compound 91] | H (“H” indicates 101-1000) | > 30
3 | CC[C@@H](NC(=O)N1C(=O)[C@H](Cc2ccnc(NC(=O)OC(C)(C)C)c2)[C@H]1C(=O)N(C)c1ccncc1)c1cccc(Cl)c1 [Compound 127] | H (“H” indicates 101-1000) | 
4 | CN(C(=O)[C@@H]1[C@@H](Cc2ccnc(N)c2)C(=O)N1C(=O)N[C@@H](C1CCCCC1)C1CC1)c1ccncc1 [Compound 52] | H (“H” indicates 101-1000) | ≤ 10
5 | CC[C@@H](NC(=O)N1C(=O)[C@H](Cc2ccnc(NC)c2)[C@H]1C(=O)N(C)c1ncccn1)C1CCCCC1 [Compound 80] | H (“H” indicates 101-1000) | > 30
6 | CC[C@@H](NC(=O)N1C(=O)[C@H](Cc2ccnc(N)c2)[C@H]1C(=O)N(C)c1ccncc1)C1CCCCC1 [Compound 25] | I (“I” indicates >500) | 11 to 30
7 | CC[C@@H](NC(=O)N1C(=O)[C@H](Cc2ccnc(N)c2)[C@H]1C(=O)N(C)c1ncncn1)C1CCCCC1 [Compound 81] | H (“H” indicates 101-1000) | 
8 | CN(C(=O)[C@@H]1[C@@H](Cc2ccnc(N)c2)C(=O)N1C(=O)N[C@@H](C1CC1)C(F)(F)F)c1ccncc1 [Compound 77] | H (“H” indicates 101-1000) | 
9 | CN(C(=O)[C@@H]1[C@@H](Cc2ccnc(N)c2)C(=O)N1C(=O)N[C@@H](C1CCCCC1)C(F)(F)F)c1cncnc1 [Compound 19] | G (“G” indicates 1-100) | 
10 | CN(C(=O)[C@@H]1[C@@H](Cc2ccnc(N)c2)C(=O)N1C(=O)NC(c1ccccc1)c1ccccc1)c1ccncc1 [Compound 82] | H (“H” indicates 101-1000) | 
11 | CN(C(=O)[C@@H]1[C@@H](Cc2ccnc(N)c2)C(=O)N1C(=O)N[C@@H](C1CCCCC1)C(F)(F)F)c1cccc(F)c1 [Compound 22] | G (“G” indicates 1-100) | 
12 | CC[C@@H](NC(=O)N1C(=O)[C@H](Cc2ccnc(N)c2)[C@H]1C(=O)N(CC)c1ncccn1)C1CCCCC1 [Compound 39] | I (“I” indicates >500) | ≤ 10
13 | CC[C@@H](NC(=O)N1C(=O)[C@H](Cc2ccnc(N)c2)[C@H]1C(=O)N(C)c1ccncc1)c1ccccc1Cl [Compound 95] | H (“H” indicates 101-1000) | 
14 | CC[C@H](NC(=O)N1C(=O)[C@H](Cc2ccnc(N)c2)[C@H]1C(=O)N(C)c1ccncc1)c1ccccc1C [Compound 97] | H (“H” indicates 101-1000) | 
15 | CC[C@@H](NC(=O)N1C(=O)[C@H](Cc2ccnc(N)c2)[C@H]1C(=O)N(C)c1ccncc1)c1cccnc1 [Compound 59] | H (“H” indicates 101-1000) | 11 to 30
16 | CC[C@@H](NC(=O)N1C(=O)[C@H](Cc2ccnc(N)c2)[C@H]1C(=O)N(C)c1ccncc1)c1ccc(Cl)cc1 [Compound 89] | H (“H” indicates 101-1000) | 
17 | CCN(C(=O)[C@@H]1[C@@H](Cc2ccnc(N)c2)C(=O)N1C(=O)N[C@@H](C1CCCCC1)C(F)(F)F)c1ccccc1 [Compound 24] | G (“G” indicates 1-100) | 

Next, values leading:

Row | Ratio: Thrombin/FXIa (Thrombin) | bioavailability [1] [%] | Structure (SMILES)
18 | G (“G” indicates 1-100) |  | CCC[C@@H](NC(=O)N1C(=O)[C@H](Cc2ccnc(N)c2)[C@H]1C(=O)N(C)c1ccccc1)C1CCCCC1 [Compound 50]
19 | H (“H” indicates 101-1000) |  | CC[C@@H](NC(=O)N1C(=O)[C@H](Cc2cc(C)nc(N)c2)[C@H]1C(=O)N(C)c1ccccc1)c1cccc(Cl)c1 [Compound 120]
20 | G (“G” indicates 1-100) |  | CC[C@@H](NC(=O)N1C(=O)[C@H](Cc2ccnc(N)c2)[C@H]1C(=O)N(C)c1ccccc1)C1CC1 [Compound 46]
21 | H (“H” indicates 101-1000) | > 30 | CC[C@@H](NC(=O)N1C(=O)[C@H](Cc2ccnc(N)c2)[C@H]1C(=O)N(C)c1ccncc1)c1ccccc1 [Compound 42]
22 | I (“I” indicates >500) | > 30 | CC[C@@H](NC(=O)N1C(=O)[C@H](Cc2ccnc(N)c2)[C@H]1C(=O)N(C)c1ncccn1)c1ccccc1 [Compound 84]
23 | H (“H” indicates 101-1000) | > 30 | CC[C@@H](NC(=O)N1C(=O)[C@H](Cc2ccnc(N)c2)[C@H]1C(=O)N(C)c1ccncc1)c1cccc(Cl)c1 [Compound 90]
24 | H (“H” indicates 101-1000) | 11 to 30 | CN(C(=O)[C@@H]1[C@@H](Cc2ccnc(N)c2)C(=O)N1C(=O)N[C@@H](C1CCCCC1)C1CC1)c1ccccc1 [Compound 36]
25 | H (“H” indicates 101-1000) | ≤ 10 | CC[C@@H](NC(=O)N1C(=O)[C@H](Cc2ccnc(N)c2)[C@H]1C(=O)N(C)c1ncccn1)c1cccnc1 [Compound 61]
26 | H (“H” indicates 101-1000) |  | C[C@@H](NC(=O)N1C(=O)[C@H](Cc2ccnc(N)c2)[C@H]1C(=O)N(C)c1ccccc1)C1CCCCC1 [Compound 49]
27 | H (“H” indicates 101-1000) |  | CN(C(=O)[C@@H]1[C@@H](Cc2ccnc(N)c2)C(=O)N1C(=O)N[C@@H](C1CC1)C(F)(F)F)c1ncccn1 [Compound 78]
28 | G (“G” indicates 1-100) |  | Cc1ccccc1N(C)C(=O)[C@@H]1[C@@H](Cc2ccnc(N)c2)C(=O)N1C(=O)N[C@@H](C1CCCCC1)C(F)(F)F [Compound 15]
29 | H (“H” indicates 101-1000) |  | CC[C@@H](NC(=O)N1C(=O)[C@H](Cc2ccnc(N)c2)[C@H]1C(=O)N(C)c1ccncc1)c1cccc(C#N)c1 [Compound 99]
30 | G (“G” indicates 1-100) |  | CC[C@@H](NC(=O)N1C(=O)[C@H](Cc2ccnc(N)c2)[C@H]1C(=O)N(C)c1ccccc1)c1cccnc1 [Compound 44]
31 | H (“H” indicates 101-1000) |  | CC[C@@H](NC(=O)N1C(=O)[C@H](Cc2ccnc(N)c2)[C@H]1C(=O)N(C)c1ncccn1)c1cccc(Cl)c1 [Compound 121]
32 | H (“H” indicates 101-1000) | > 30 | CC[C@@H](NC(=O)N1C(=O)[C@H](Cc2ccnc(N)c2)[C@H]1C(=O)N(C)c1ccccc1)C1CCCCC1 [Compound 27]
33 | H (“H” indicates 101-1000) | ≤ 10 | CN(C(=O)[C@@H]1[C@@H](Cc2ccnc(N)c2)C(=O)N1C(=O)N[C@@H](C1CCCCC1)C(F)(F)F)c1ncccn1 [Compound 21]
34 | I (“I” indicates >500) |  | CCC[C@@H](NC(=O)N1C(=O)[C@H](Cc2ccnc(N)c2)[C@H]1C(=O)N(C)c1ccncc1)c1ccccc1 [Compound 86]
35 | G (“G” indicates 1-100) |  | CN(C(=O)[C@@H]1[C@@H](Cc2ccnc(N)c2)C(=O)N1C(=O)N[C@@H](C1CCCCC1)C(F)(F)F)c1cccnc1 [Compound 17]
36 | H (“H” indicates 101-1000) |  | CN(C(=O)[C@@H]1[C@@H](Cc2ccnc(N)c2)C(=O)N1C(=O)N[C@@H](C1CCCCC1)C(F)(F)F)c1ccncc1 [Compound 18]
37 | H (“H” indicates 101-1000) |  | CC[C@@H](NC(=O)N1C(=O)[C@H](Cc2ccnc(N)c2)[C@H]1C(=O)N(C)c1ccncc1)c1cccc(OC)c1 [Compound 100]
38 | I (“I” indicates >500) |  | CC[C@@H](NC(=O)N1C(=O)[C@H](Cc2ccnc(N)c2)[C@H]1C(=O)N(C)c1ncncn1)c1ccccc1 [Compound 83]
